Test results taken from ChEMBL document CHEMBL1201862, “PubChem BioAssay data set” (2004).
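48-hour exposure; five concentrations; linearly interpolated endpoints. Here, GI50 denotes the concentration required for 50% inhibition of growth.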 Activity calls are given as the source filed them. No stated cut-off is given here; in the data, active = GI50 up to about 1.1 µM and inactive = higher.

Legend:
Experiment in all cases: NCI-60 cell line screen, 48 h
[1] = test system: MCF7
[2] = test system: LOX IMVI
[3] = test system: SF-268
[4] = test system: CAKI-1
[5] = test system: TK-10
[6] = test system: T47D
[7] = test system: HT-29
[8] = test system: SK-OV-3
[9] = test system: UACC-62
[10] = test system: A498
[11] = test system: ACHN
[12] = test system: COLO 205
[13] = test system: HOP-62
[14] = test system: SK-MEL-28
[15] = test system: CCRF-CEM
[16] = test system: SN12C
[17] = test system: SW-620
[18] = test system: OVCAR-8
[19] = test system: IGROV-1

Compound	GI50 [1]	GI50 [2]	GI50 [3]	GI50 [4]	GI50 [5]	GI50 [6]	GI50 [7]	GI50 [8]	GI50 [9]	GI50 [10]	GI50 [11]	GI50 [12]	GI50 [13]	GI50 [14]	GI50 [15]	GI50 [16]	GI50 [17]	GI50 [18]	GI50 [19]
O=C(c1cccs1)N(Cc1cccnc1)C(=S)N(Cc1cccnc1)C(=O)c1cccs1	4.85 µM (inactive)	5.5 µM (inactive)	35.6 µM (inactive)	> 100 µM (inactive)	34 µM (inactive)	> 100 µM (inactive)	> 100 µM (inactive)	37.8 µM (inactive)	60.7 µM (inactive)	32.3 µM (inactive)	> 100 µM (inactive)	> 100 µM (inactive)	35.6 µM (inactive)	> 100 µM (inactive)	> 100 µM (inactive)	32.6 µM (inactive)	> 100 µM (inactive)	50.4 µM (inactive)	
N#CS/C(Cl)=C(/C(Cl)=C(Cl)Cl)[N+](=O)[O-]	29.9 µM (inactive)	19.6 µM (inactive)	38 µM (inactive)	35.4 µM (inactive)	> 100 µM (inactive)	37.2 µM (inactive)	34.5 µM (inactive)	> 100 µM (inactive)	47.2 µM (inactive)	79.6 µM (inactive)	31.3 µM (inactive)	30.5 µM (inactive)	> 100 µM (inactive)	29.4 µM (inactive)	33 µM (inactive)	36.9 µM (inactive)	29.7 µM (inactive)	34.4 µM (inactive)	37.5 µM (inactive)
CCN(CC)c1ccc(/C=C2\CCc3ccc([N+](=O)[O-])cc3C2=O)cc1	0.535 µM (active)	0.409 µM (active)	14.4 µM (inactive)	> 26.6 µM (inactive)	2.86 µM (inactive)	4.55 µM (inactive)	0.256 µM (active)	4.54 µM (inactive)	1.29 µM (inactive)	2.56 µM (inactive)	8.85 µM (inactive)	4.01 µM (inactive)	0.471 µM (active)	3.46 µM (inactive)	0.217 µM (active)	2.99 µM (inactive)	0.297 µM (active)	3.73 µM (inactive)	7.06 µM (inactive)
COC(=O)C1=NN2c3ccccc3CN([C@@H](C)c3ccccc3)C(=O)[C@@H]2C1	34.8 µM (inactive)	25.5 µM (inactive)	28.7 µM (inactive)	23.2 µM (inactive)	50.7 µM (inactive)	14.1 µM (inactive)	44.1 µM (inactive)	> 100 µM (inactive)	19 µM (inactive)	91.8 µM (inactive)	34 µM (inactive)	35.6 µM (inactive)	57.7 µM (inactive)	38.7 µM (inactive)	25.7 µM (inactive)	56.1 µM (inactive)	87.3 µM (inactive)	34.6 µM (inactive)	64.1 µM (inactive)
CC[C@H](C)C1=C(O)[N@+]2([O-])Oc3ccc(-c4c(O)c(O)c(-c5ccc(OC(C)=O)cc5)c(OC(C)=O)c4OC(C)=O)cc3O[C@]2([C@@H](C)CC)C(=O)N1O	24.2 µM (inactive)	12.9 µM (inactive)	33.3 µM (inactive)	34.4 µM (inactive)	25.5 µM (inactive)	21.7 µM (inactive)	25.3 µM (inactive)	15.4 µM (inactive)	15 µM (inactive)	12.9 µM (inactive)	26.3 µM (inactive)	16.3 µM (inactive)	32 µM (inactive)	33 µM (inactive)	10.3 µM (inactive)	17.2 µM (inactive)	10.7 µM (inactive)	24.5 µM (inactive)	8.85 µM (inactive)
CCCc1nc(Cl)c(Cl)c(Cl)n1	16.1 µM (inactive)	3.82 µM (inactive)	11.9 µM (inactive)	10.7 µM (inactive)	> 71.9 µM (inactive)	17.5 µM (inactive)	> 47.6 µM (inactive)	53.6 µM (inactive)	36.5 µM (inactive)	> 100 µM (inactive)		25.4 µM (inactive)	33.7 µM (inactive)	56.5 µM (inactive)	8.81 µM (inactive)	19.6 µM (inactive)	14.8 µM (inactive)	18.7 µM (inactive)	17.4 µM (inactive)
C=CCC(CNC(=O)OCc1ccccc1)O[Si](C)(C)C(C)(C)C (stereo not drawn)	22.3 µM (inactive)	23.4 µM (inactive)	45.3 µM (inactive)	29.4 µM (inactive)	74.5 µM (inactive)	22.9 µM (inactive)	18 µM (inactive)	61.5 µM (inactive)	23.2 µM (inactive)	38.8 µM (inactive)	33.6 µM (inactive)	16.6 µM (inactive)	38.5 µM (inactive)	48 µM (inactive)	28.3 µM (inactive)	31.2 µM (inactive)	38.1 µM (inactive)	45.3 µM (inactive)	27.4 µM (inactive)
CC(=O)NC1C(OCc2ccccc2)OC(CO)C(O)C1OC(C)C(=O)NC(C)C(=O)NC(CCC(=O)NCCCNc1c2ccccc2nc2cccc([N+](=O)[O-])c12)C(N)=O (stereo not drawn)	0.64 µM (active)	3.65 µM (inactive)	1.38 µM (inactive)	1.7 µM (inactive)	2.94 µM (inactive)	16.8 µM (inactive)	0.29 µM (active)	7.26 µM (inactive)	1.25 µM (inactive)	2.01 µM (inactive)	0.792 µM (active)	0.57 µM (active)	1.91 µM (inactive)	2.58 µM (inactive)	7.48 µM (inactive)	1.02 µM (active)	0.229 µM (active)	1.05 µM (active)	19.1 µM (inactive)
COc1ccccc1NC(=S)NN=C(C)c1cccc(C(C)=NNC(=S)Nc2ccccc2OC)n1	29.1 µM (inactive)	31.8 µM (inactive)	15.9 µM (inactive)	82.2 µM (inactive)	0.18 µM (active)	> 100 µM (inactive)	18 µM (inactive)	99.8 µM (inactive)	20.5 µM (inactive)	29.1 µM (inactive)	14.7 µM (inactive)	19.6 µM (inactive)	42.8 µM (inactive)	79.4 µM (inactive)	4.78 µM (inactive)	30 µM (inactive)	7.73 µM (inactive)	12.9 µM (inactive)	25.5 µM (inactive)
CC(C)=CCC[C@@H](C)C1=C(Nc2ccccc2Cl)C(=O)C(C)=C(O)C1=O	7.69 µM (inactive)	3.26 µM (inactive)	3.85 µM (inactive)	4.06 µM (inactive)	4.88 µM (inactive)	5.62 µM (inactive)	3.56 µM (inactive)	5.14 µM (inactive)	3.67 µM (inactive)	5.42 µM (inactive)	2.26 µM (inactive)	2.84 µM (inactive)	3.45 µM (inactive)	11 µM (inactive)	1.01 µM (active)	3.72 µM (inactive)	4.71 µM (inactive)	2.81 µM (inactive)	2.45 µM (inactive)
O=C1c2ccccc2NC2C(O)c3ccccc3N12 (stereo not drawn)	40.2 µM (inactive)	36.6 µM (inactive)	> 100 µM (inactive)	34.8 µM (inactive)	99.3 µM (inactive)	6.5 µM (inactive)	60 µM (inactive)	> 100 µM (inactive)	23.6 µM (inactive)	20.6 µM (inactive)	40.8 µM (inactive)	41.1 µM (inactive)	65 µM (inactive)		29.4 µM (inactive)	94.4 µM (inactive)	9.46 µM (inactive)	49.1 µM (inactive)	72.8 µM (inactive)
Cc1ccsc1/C(S)=N\c1ccc(Cl)c(/C=N/OC(C)(C)C)c1	35.2 µM (inactive)	18.6 µM (inactive)	> 100 µM (inactive)	29 µM (inactive)	16.6 µM (inactive)	23.6 µM (inactive)	14.1 µM (inactive)	> 100 µM (inactive)	32.4 µM (inactive)	20.2 µM (inactive)	24.5 µM (inactive)	16.3 µM (inactive)	51.5 µM (inactive)	28.1 µM (inactive)	24.2 µM (inactive)	27 µM (inactive)	35.3 µM (inactive)	33 µM (inactive)	28.9 µM (inactive)
CC1(C)CC(O)C2=C(O1)C(=O)c1ncccc1C2=O (stereo not drawn)	2.12 µM (inactive)	1.58 µM (inactive)	2 µM (inactive)	2.24 µM (inactive)	6.46 µM (inactive)	2.26 µM (inactive)	3.05 µM (inactive)	13.7 µM (inactive)	1.72 µM (inactive)	5.3 µM (inactive)	2.93 µM (inactive)	2.32 µM (inactive)	1.85 µM (inactive)	1.69 µM (inactive)	2.19 µM (inactive)	1.94 µM (inactive)	1.87 µM (inactive)	2.6 µM (inactive)	2.17 µM (inactive)
CC[C@](O)(CC(=O)O[C@H]1C(=O)O[C@@H]2C[C@H]3C(C)=CC(=O)[C@@H](O)[C@]3(C)[C@H]3[C@@]4(O)OC[C@]32[C@@H]1[C@@H](C)[C@H]4O)C(C)C	< 0.01 µM (active)	< 0.01 µM (active)	< 0.01 µM (active)	< 0.01 µM (active)	< 0.01 µM (active)	< 0.01 µM (active)	< 0.01 µM (active)	< 0.01 µM (active)	< 0.01 µM (active)	< 0.01 µM (active)	< 0.01 µM (active)	< 0.01 µM (active)	< 0.01 µM (active)	< 0.01 µM (active)	< 0.01 µM (active)	< 0.01 µM (active)	< 0.01 µM (active)	< 0.01 µM (active)	< 0.01 µM (active)
